In US20050101574A1, “Parathyroid hormone production inhibitors containing vitamin d3 derivatives” (priority 2000, published 2005):

Tests used:
[1] = tested on: PTH concentration in serum; test: PTH concentration in serum of vitamin D deficient rats after intravenous administration (radioimmunoassay); assay type: in vivo, rat; conditions: for PTH conc.: mean ± standard error, n = 5
Protocol: The number of animals were five for one group.
The volume of administered liquid was 2 mL/kg.
(§1) The volume of administered solution was 2 mL/kg.

[2] = tested on: calcium concentration in serum; test: Calcium concentration in serum of vitamin D deficient rats after intravenous administration (OCPC method); conditions: for Calcium conc. in serum: Table 4: vitamin D deficient rats; for Calcium conc. in serum / Calcium conc.: i.v., mean ± standard error, n = 5
Protocol: (§2) (1) Male Wistar rats of 4 weeks old were purchased from Japan SLC (SLC, Shizuoka prefecture). The rats were put into wire cages three for each cage and bred under the condition of 23±1° C. and 55±10% humidity by allowing the rats to free ingestion of a vitamin D deficient feed for animal breeding (Ca, 0.0036%; P, 0.3%; Harlan Teklad Research Diet, Madison, Wis., U.S.A.) and drinking water (well water treated with 0.4%±0.2 ppm hypochlorite) for 7 weeks. The number of animals were five for one group.
(§3) (2) As shown in the Table 2, the negative control group (Group 1) was administered with a solvent (5% ethanol/0.1% Triton X-100/physiological saline solution) and the positive control group (Group 2) was administered with 0.5 μg/kg of 1α,25-dihydroxyvitamin D3 by intravenous administration.
(§4) (2) As shown in the Table 3, the negative control group (Group 1) was administered with a solvent (5% ethanol/0.1% Triton X-100/physiological saline solution) and the positive control group (Group 2) was administered with 0.25 μg/kg of 1α,25-dihydroxyvitamin D3 by intravenous administration.
(§5) (2) As shown in the Table 4, the negative control group (Group 1) was administered with a solvent (5% ethanol/0.1% Triton X-100/physiological saline solution) and the positive control group (Group 2) was administered with 1α,25-dihydroxyvitamin D3 at a dose of 0.1 μg/kg, 0.5 μg/kg and 2.5 μg/kg by intravenous administration.

[3] = tested on: intestinal calcium absorption; test: Calcium absorption activity of the intestinal canal (duodenum) of vitamin D deficient rats, inverted gut sac method; assay type: in vivo, rat; parameters: Intestinal calcium absorption: unit not given here; conditions: for Intestinal calcium absorption: Table 4: vitamin D deficient rats, i.v., Time 8 hrs, mean ± standard error, n = 5; for intestinal calcium absorption promoting activity: 8 hours, vitamin D deficient rats
Protocol: as §1
J. Physiol., vol.216, pp. 1351-1359, 1969.

[4] = tested on: calcium concentration in serum; conditions: rat, in vivo
Protocol: as §2, §3, §4, §5

[5] = intravenous administration at a dose of 0.5 μg/kg, vitamin D deficient rats

`C=C1/C(=C\C=C2/CCC[C@]3(C)[C@@H]([C@H](C)CCCC(C)(C)O)CC[C@@H]23)C[C@@H](O)C[C@@H]1O` [1α,25-dihydroxyvitamin D3] was tested, and the PTH conc. ([1]; Table 3: vitamin D deficient rats, i.v., Administration Rate 0.25, Time 8 hrs) was 459 ± 14 pg/ml serum, the “time after administration of the lowest level of PTH concentration in serum” value [1, 5] was 24 h and the PTH conc. ([1]; vitamin D deficient rats, i.v., Administration Rate 0.5, Time 4 hrs) was 458 ± 38 pg/ml serum. For the same compound, the PTH conc. ([1]; vitamin D deficient rats, i.v., Administration Rate 0.5, Time 8 hrs) was 399 ± 2 pg/ml serum, the PTH conc. ([1]; vitamin D deficient rats, i.v., Administration Rate 0.5, Time 24 hrs) was 325 ± 31 pg/ml serum and the PTH conc. ([1]; vitamin D deficient rats, i.v., Administration Rate 0.5, Time 48 hrs) was 488 ± 43 pg/ml serum. The PTH conc. ([1]; vitamin D deficient rats, i.v., Administration Rate 0.5, Time 72 hrs) was 555 ± 67 pg/ml serum, the “Calcium conc. in serum” value ([2]; Administration Rate 0.1 (mg/kg), Time 8 hrs) was 5.30 ± 0.10 mg/100 ml serum and the “Calcium conc. in serum” value ([2]; Administration Rate 0.5 (mg/kg), Time 8 hrs) was 5.90 ± 0.40 mg/100 ml serum. For the same compound, the “Calcium conc. in serum” value ([2]; Administration Rate 2.5 (mg/kg), Time 8 hrs) was 6.17 ± 0.07 mg/100 ml serum, the “time after administration of the maximum level of calcium concentration in serum” value [2, 5] was 8 h and the Calcium conc. ([2]; vitamin D deficient rats, Administration Rate 0.5 (mg/kg), Time 4 hrs) was 5.33 ± 0.09 mg/100 ml serum. For the same compound, the Calcium conc. ([2]; vitamin D deficient rats, Administration Rate 0.5 (mg/kg), Time 8 hrs) was 6.00 ± 0.17 mg/100 ml serum, the Calcium conc. ([2]; vitamin D deficient rats, Administration Rate 0.5 (mg/kg), Time 24 hrs) was 5.87 ± 0.22 mg/100 ml serum and the Calcium conc. ([2]; vitamin D deficient rats, Administration Rate 0.5 (mg/kg), Time 48 hrs) was 5.48 ± 0.15 mg/100 ml serum. It also gave a Calcium conc. ([2]; vitamin D deficient rats, Administration Rate 0.5 (mg/kg), Time 72 hrs) of 5.10 ± 0.18 mg/100 ml serum.
`C=C1CC(CC(C)C2CCC3C(=CC=C4CC(O)CC(O)C4=C)CCCC32C)OC1=O` [Compound 11 (23S isomer), (23S)-25-dehydro-1α,25-dihydroxyvitamin D3-26,23-lactone] was tested, and the PTH conc. ([1]; Table 2: vitamin D deficient rats, i.v., Administration Rate 50, Time 4 hrs) was 354 ± 65 pg/ml serum, the PTH conc. ([1]; Table 2: vitamin D deficient rats, i.v., Administration Rate 50, Time 8 hrs) was 330 ± 72 pg/ml serum and the PTH conc. ([1]; Table 2: vitamin D deficient rats, i.v., Administration Rate 50, Time 24 hrs) was 319 ± 1 pg/ml serum. For the same compound, the PTH conc. ([1]; Table 2: vitamin D deficient rats, i.v., Administration Rate 50, Time 48 hrs) was 436 ± 51 pg/ml serum, the PTH conc. ([1]; Table 2: vitamin D deficient rats, i.v., Administration Rate 50, Time 72 hrs) was 528 ± 38 pg/ml serum and the PTH conc. ([1]; Table 3: vitamin D deficient rats, i.v., Administration Rate 2, Time 8 hrs) was 488 ± 47 pg/ml serum. For the same compound, the PTH conc. ([1]; Table 3: vitamin D deficient rats, i.v., Administration Rate 10, Time 8 hrs) was 385 ± 65 pg/ml serum, the PTH conc. ([1]; Table 3: vitamin D deficient rats, i.v., Administration Rate 50, Time 8 hrs) was 319 ± 56 pg/ml serum and the “PTH concentration in serum” value ([1]; intravenous administration at a dose of 10 μg/kg, vitamin D deficient rats (Example 1)) was “significantly lowered”. For the same compound, the “time after administration of the lowest level of PTH concentration in serum” value ([1]; intravenous administration at a dose of 50 μg/kg, vitamin D deficient rats) was 24 h, the “serum PTH concentration lowering action relative to the action of 1α,25-dihydroxyvitamin D3” value ([1]; ratio to 1α,25-dihydroxyvitamin D3, vitamin D deficient rats, i.v., 8 hours) was 1/12 and the “effect on PTH concentration in serum versus serum calcium concentration (conclusion in words)” value ([1]; vitamin D deficient rats, Examples 1, 2 and 3) was “effective for lowering the PTH concentration in serum without changing the calcium concentration in serum”. It also gave an Intestinal calcium absorption ([3]; Administration Rate 10 (mg/kg)) of 1.89 ± 0.04, an Intestinal calcium absorption ([3]; Administration Rate 50 (mg/kg)) of 2.32 ± 0.21 and an Intestinal calcium absorption ([3]; Administration Rate 250 (mg/kg)) of 2.53 ± 0.10. For the same compound, the “intestinal calcium absorption promoting activity” value ([3]; administration dose of from 50 μg/kg to 250 μg/kg i.v.) was “weak”, the “intestinal calcium absorption promoting activity” value ([3]; dose of 10 μg/kg i.v.) was “absolutely unobservable” and the calcium metabolism activity [4] was “absolutely unobservable”.
